Numbering of substitutions follows the chain as printed. Where two headings read alike, the source gives them in different places.
Assays:
[1] = molecular target: T1, mutant MGL (Homo sapiens, UniProt Q99685, L169S/L176S); experiment: MGL ThermoFluor assay - mutant; type: binding
T1 construct: purified mutant MGL (mut-MGLL 11-313 L179S L186S)
T1 sequence (Q99685 1-303 L169S/L176S): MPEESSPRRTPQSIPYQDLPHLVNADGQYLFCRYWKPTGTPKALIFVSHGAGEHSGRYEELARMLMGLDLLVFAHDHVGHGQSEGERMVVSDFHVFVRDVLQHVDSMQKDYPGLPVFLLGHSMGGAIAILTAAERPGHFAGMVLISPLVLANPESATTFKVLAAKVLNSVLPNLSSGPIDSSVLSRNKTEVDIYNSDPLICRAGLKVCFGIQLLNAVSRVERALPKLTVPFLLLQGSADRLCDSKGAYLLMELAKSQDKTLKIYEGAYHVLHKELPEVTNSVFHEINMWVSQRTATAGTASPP
Description: The ThermoFluor (TF) assay is a 384-well plate-based binding assay that measures thermal stability of proteins^1,2. The experiments were carried out using instruments available from Johnson & Johnson Pharmaceutical Research & Development, LLC. TF dye used in all experiments was 1,8-ANS (Invitrogen: A-47). Final TF assay conditions used for MGL studies were 0.07 mg/ml of mutant MGL, 100 μM ANS, 200 mM NaCl, 0.001% Tween-20 in 50 mM PIPES (pH=7.0).
Screening compound plates contained 100% DMSO compound solutions at a single concentration. For follow-up concentration-response studies, compounds were arranged in a pre-dispensed plate (Greiner Bio-one: 781280), wherein compounds were serially diluted in 100% DMSO across 11 columns within a series. Columns 12 and 24 were used as DMSO reference and contained no compound. For both single and multiple compound concentration-repsonse experiments, the compound aliquots (46 nL) were robotically predispensed directly into 384-well black assay plates (Abgene: TF-0384/k) using the Hummingbird liquid handler. Following compound dispension, protein and dye solutions were added to achieve the final assay volume of 3 μL. The assay solutions were overlayed with 1 μl of silicone oil (Fluka, type DC 200: 85411) to prevent evaporation.
Bar-coded assay plates were robotically loaded onto a thermostatically controlled PCR-type thermal block and then heated from 40 to 90° C. degrees at a ramp-rate of 1° C./min for all experiments. Fluorescence was measured by continuous illumination with UV light (Hamamatsu LC6), supplied via fiber optics and filtered through a band-pass filter (380-400 nm; >6 OD cutoff). Fluorescence emission of the entire 384-well plate was detected by measuring light intensity using a CCD camera (Sensys, Roper Scientific) filtered to detect 500±25 nm, resulting in simultaneous and independent readings of all 384 wells. A single image with 20-sec exposure time was collected at each temperature, and the sum of the pixel intensity in a given area of the assay plate was recorded vs temperature and fit to standard equations to yield the Tm^1. • 1. Pantoliano, M. W., Petrella, E. C., Kwasnoski, J. D., Lobanov, V. S., Myslik, J., Graf, E., Carver, T., Asel, E., Springer, B. A., Lane, P., and Salemme, F. R. (2001) J Biomol Screen 6, 429-40. • 2. Matulis, D., Kranz, J. K., Salemme, F. R., and Todd, M. J. (2005) Biochemistry 44, 5258-66.
The Kd values for compounds of Formula (I) were determined from a fit of the equation to the concentration-response plot of the fractional activity as a function of Tm. For some experiments, quantitative NMR spectroscopy (qNMR) was used to measure concentration of the initial 100% DMSO compound solutions and, using the same fitting method, qKd values were determined

[2] = molecular target: T2, purified wild type MGL (wt-MGLL 6H-11-313) (Homo sapiens, UniProt Q99685); experiment: MGL enzyme activity assay (4MU-B cleavage), wild type MGL; type: biochemical; conditions: 10 μM 4MU-B, 5 nM enzyme, 37° C., read-out: MGL wild type inh IC50
T2 construct: purified wild type MGL (wt-MGLL 6H-11-313)
T2 sequence (Q99685 1-303): T1 sequence (Q99685 1-303 L169S/L176S) with S169L, S176L
Description: All rate-based assays were performed in black 384-well polypropylene PCR microplates (Abgene) in a total volume of 30 μL. Substrate 4-methylumbelliferyl butyrate (4MU-B; Sigma) and either purified mutant MGL (mut-MGLL 11-313 L179S L186S) or purified wild type MGL (wt-MGLL 6H-11-313) were diluted separately into 20 mM PIPES buffer (pH=7.0), containing 150 mM NaCl and 0.001% Tween 20. Compounds of Formula (I) were pre-dispensed (50 nL) into the assay plate using a Cartesian Hummingbird prior to adding 4MU-B (25 μL of 1.2× solution to a final concentration of 10 μM) followed by enzyme (5 μL of a 6× solution to a final concentration of 5 nM) to initiate the reaction. Final compound concentrations ranged from 17 to 0.0003 μM. The fluorescence change due to 4MU-B cleavage was monitored with excitation and emission wavelengths of 335 and 440 nm, respectively, and a bandwidth of 10 nm (Safire^2, Tecan) at 37° C. for 5 min.
The IC50 values for compounds of Formula (I) were determined using Excel from a fit of the equation to the concentration-response plot of the fractional activity as a function of inhibitor concentration.

[3] = 0.07 mg/ml mutant MGL, pH=7.0, read-out: MGL mutant ThermoFluor Kd
[4] = compound concentration measured by qNMR, read-out: MGL mutant ThermoFluor qKd (using qNMR conc.)

## O=C(c1ccc2c(ccn2-c2ccc(F)c(F)c2)c1)N1CC(C2CCN(C(=O)c3nccs3)CC2)C1
[1]; [3]
  Kd: 0.6 nM
[2]
  IC50: < 5 nM

## O=C(c1cc[nH]c1)N1CCC(C2CN(C(=O)c3ccc(-c4ccccc4)cc3)C2)CC1 [Cpd 4, 4-[1-(Biphenyl-4-ylcarbonyl)azetidin-3-yl]-1-(1H-pyrrol-3-ylcarbonyl)piperidine]
[1]; [3]
  Kd: 162 nM
[2]
  IC50: 154 nM

## O=C(c1ccc(-c2ccccc2)cc1)N1CC(C2CCN(C(=O)c3cncs3)CC2)C1 [Cpd 5, 4-[1-(Biphenyl-4-ylcarbonyl)azetidin-3-yl]-1-(1,3-thiazol-5-ylcarbonyl)piperidine]
[1]; [3]
  Kd: 64.1 nM
[2]
  IC50: 87.6 nM

## O=C(c1ccccc1)N1CCC(O)(C2CN(C(=O)c3cc4cc(C(F)(F)F)ccc4s3)C2)CC1 [Cpd 6, 1-(Phenylcarbonyl)-4-(1-{[5-(trifluoromethyl)-1-benzothiophen-2-yl]carbonyl}azetidin-3-yl)piperidin-4-ol]
[1]; [3]
  Kd: 258 nM
[2]
  IC50: 918 nM

## O=C(c1cscn1)N1CCC(C2CN(C(=O)c3ccc(-c4ccccc4)cc3F)C2)CC1 [Cpd 9, 4-{1-[(3-Fluorobiphenyl-4-yl)carbonyl]azetidin-3-yl}-1-(1,3-thiazol-4-ylcarbonyl)piperidine]
[1]; [3]
  Kd: 100 nM
[2]
  IC50: 114 nM

## O=C(c1cccc(-c2cccc(F)c2)c1)N1CC(C2CCN(C(=O)c3cscn3)CC2)C1 [Cpd 11, 4-{1-[(3′-Fluorobiphenyl-3-yl)carbonyl]azetidin-3-yl}-1-(1,3-thiazol-4-ylcarbonyl)piperidine]
[1]; [3]
  Kd: 732 nM
[2]
  IC50: 498 nM

## O=C(c1cccc(-c2cccc(F)c2)c1)N1CC(C2CCN(C(=O)c3ccc[nH]3)CC2)C1 [Cpd 23, 4-{1-[(3′-Fluorobiphenyl-3-yl)carbonyl]azetidin-3-yl}-1-(1H-pyrrol-2-ylcarbonyl)piperidine]
[1]; [3]
  Kd: 500 nM
[2]
  IC50: 368 nM

## O=C(c1cscn1)N1CC(C2CCN(C(=O)c3ccc(-c4ccccc4)cc3F)CC2)C1 [Cpd 46]
[1]; [4]
  Kd: 20 nM
[2]
  IC50: 111 nM

## O=C(c1ccc(-c2cccc(C(F)(F)F)c2)cc1)N1CCC(C2CN(C(=O)c3nccs3)C2)CC1 [Cpd 48, 4-[1-(1,3-Thiazol-2-ylcarbonyl)azetidin-3-yl]-1-{[3′-(trifluoromethyl)biphenyl-4-yl]carbonyl}piperidine]
[1]; [4]
  Kd: 1 nM
[2]
  IC50: < 5 nM

## Cc1c(C(=O)N2CCC(C3CN(C(=O)c4cscn4)C3)CC2)sc2cc(C(F)(F)F)ccc12 [Cpd 61]
[1]; [3]
  Kd: 0.6 nM
[1]; [4]
  Kd: 0.5 nM
[2]
  IC50: 211 nM

## O=C(c1ccc2c(ccn2-c2ccc(C(F)(F)F)cc2)c1)N1CCC(C2CN(C(=O)c3nccs3)C2)CC1 [Cpd 75, 5-({4-[1(1,3-Thiazol-2-ylcarbonyl)azetidin-3-yl]piperidin-1-yl}carbonyl)-1-[4-(trifluoromethyl)phenyl]-1H-indole]
[1]; [4]
  Kd: 3.9 nM
[2]
  IC50: < 5 nM

## O=C(c1ccc2c(ccn2-c2ccc(F)c(F)c2)c1)N1CCC(C2CN(C(=O)c3nccs3)C2)CC1 [Cpd 78, 1-(3,4-Difluorophenyl)-5-({4-[1-(1,3-thiazol-2-ylcarbonyl)azetidin-3-yl]piperidin-1-yl}carbonyl)-1H-indole]
[1]; [4]
  Kd: 2.3 nM
[2]
  IC50: < 5 nM

## O=C(c1ccc2c(c1)ncn2-c1ccc(F)cc1)N1CC(C2CCN(C(=O)c3nccs3)CC2)C1 [Cpd 81, 1-(4-Fluorophenyl)-5-({3-[1-(1,3-thiazol-2-ylcarbonyl)piperidin-4-yl]azetidin-1-yl}carbonyl)-1H-benzimidazole]
[1]; [4]
  Kd: 14.8 nM
[2]
  IC50: 23.2 nM

## O=C(c1ccc2c(c1)ncn2-c1ccc(F)c(F)c1)N1CC(C2CCN(C(=O)c3nccs3)CC2)C1 [Cpd 82, 1-(3,4-Difluorophenyl)-5-({3-[1-(1,3-thiazol-2-ylcarbonyl)piperidin-4-yl]azetidin-1-yl}carbonyl)-1H-benzimidazole]
[1]; [4]
  Kd: 22.8 nM
[2]
  IC50: 35.5 nM

## O=C(c1ccc2c(c1)ncn2-c1ccc(C(F)(F)F)cc1)N1CC(C2CCN(C(=O)c3nccs3)CC2)C1 [Cpd 83, 5-({30[1-(1,3-Thiazol-2-ylcarbonyl)piperidin-4-yl]azetidin-1-yl}carbonyl)-1-[4-(trifluoromethyl)phenyl]-1H-benzimidazole]
[1]; [4]
  Kd: 13.6 nM
[2]
  IC50: 9.16 nM

## O=C(c1ccc2c(c1)ncn2CC(F)(F)F)N1CC(C2CCN(C(=O)c3nccs3)CC2)C1 [Cpd 84, 5-({3-[1-(1,3-Thiazol-2-ylcarbonyl)piperidin-4-yl]azetidin-1-yl}carbonyl)-1-(2,2,2-trifluoroethyl)-1H-benzimidazole]
[1]; [4]
  Kd: 66.3 nM
[2]
  IC50: 175 nM

## O=C(c1ccc2c(c1)ncn2CCC(F)(F)F)N1CC(C2CCN(C(=O)c3nccs3)CC2)C1 [Cpd 85, 5-({3-[1-(1,3-Thiazol-2-ylcarbonyl)piperidin-4-yl]azetidin-1-yl}carbonyl)-1-(3,3,3-trifluoropropyl)-1H-benzimidazole]
[1]; [4]
  Kd: 64.5 nM
[2]
  IC50: 280 nM

## Cc1nc2cc(C(=O)N3CC(C4CCN(C(=O)c5nccs5)CC4)C3)ccc2n1-c1ccccc1 [Cpd 86, 2-Methyl-1-phenyl-5-({3-[1-(1,3-thiazol-2-ylcarbonyl)piperidin-4-yl]azetidin-1-yl}carbonyl)-1H-benzimidazole]
[1]; [4]
  Kd: 10.6 nM
[2]
  IC50: 18.7 nM

## Cc1nc2cc(C(=O)N3CC(C4CCN(C(=O)c5nccs5)CC4)C3)ccc2n1-c1ccc(F)cc1 [Cpd 87, 1-(4-Fluorophenyl)-2-methyl-5-({3-[1-(1,3-thiazol-2-ylcarbonyl)piperidin-4-yl]azetidin-1-yl}carbonyl)-1H-benzimidazole]
[1]; [4]
  Kd: 7.5 nM
[2]
  IC50: 31.6 nM

## Cc1nc2cc(C(=O)N3CC(C4CCN(C(=O)c5nccs5)CC4)C3)ccc2n1-c1ccc(F)c(F)c1 [Cpd 88, 1-(3,4-Difluorophenyl)-2-methyl-5-({3-[1-(1,3-thiazol-2-ylcarbonyl)piperidin-4-yl]azetidin-1-yl}carbonyl)-1H-benzimidazole]
[1]; [4]
  Kd: 13.3 nM
[2]
  IC50: 9.49 nM

## Cc1nc2cc(C(=O)N3CC(C4CCN(C(=O)c5nccs5)CC4)C3)ccc2n1-c1ccc(C(F)(F)F)cc1 [Cpd 89, 2-Methyl-5-({3-[1-(1,3-thiazol-2-ylcarbonyl)piperidin-4-yl]azetidin-1-yl}carbonyl)-1-[4-(trifluoromethyl)phenyl]-1H-benzimidazole]
[1]; [4]
  Kd: 7.7 nM
[2]
  IC50: 34.1 nM

Reference: patent US8513423B2 (Janssen Pharmaceutica, NV, priority 2010, dated 2013)
